Experiment in all cases: DTP human tumour cell line panel, 48 h
Assay [1] has as its system 786-0 renal.
The test system of assay [2] is HCT-116 colon.
Assay [3] deals with HT29 colon.
Assay [4] concerns NCI-H522 lung.
The test system of assay [5] is SK-MEL-5 melanoma.
Assay [6] deals with SW-620 colon.
In assay [7] the test system is RXF 393 renal.
Assay [8] relates to MCF7 breast.
The subject of assay [9] is NCI/ADR-RES ovarian.

Usually TGI stands for the concentration at which net growth stops. In general, GI50 refers to the concentration at which growth is held to half of that of the control.

Each structure is given as a SMILES string. Several values for one entry are separate records, joined by “and”; a condition that tells them apart may be missing. Equal values may be shown once.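 Step 1: Grow cells in 96-well plates. Step 2: Expose to compound for 48 hours at 5 concentrations. Step 3: Interpolate endpoints linearly; if unreached, use highest concentration. GI50: concentration for 50% inhibition of growth. TGI denotes the concentration required for complete inhibition of growth.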

On to `Cc1cc(Cl)ccc1NC(=O)CCCC(=O)C1CCCC1=O` (stereo not given), for which the TGI in assay [1], in assay [2], in assay [3], in [4], in assay [5] and in [6] was greater than 100 µM throughout.
Regarding `O=C(Nc1cc(Cl)c(Cl)cc1Cl)C(=O)C1C=CCS1(=O)=O` (stereo not given), the TGI in assay [1], in assay [2], in assay [3], in assay [4], in [7] and in [5] was greater than 100 µM each time. For the same molecule, in [6], the TGI was greater than 100 µM.
As for `CCCCCCCCC[C@@H]1CC(=O)OCC2OC(O[C@H](CCCCCCCCC)CC(=O)OCC3OC(O[C@H](CCCCCCCCC)CC(=O)OCC4OC(O1)C(O)C(O)C4O)C(O)C(O)C3O)C(O)C(O)C2O` (stereo not given in full), the TGI in assay [1] was 16.2 µM; in assay [2], 21.9 µM; in [3], 24.3 µM; in [4], 23.5 µM; in assay [7], 30.9 µM; in assay [5], 25.5 µM. Also, in assay [6], the TGI is 17.8 µM.
For `O=S(=O)(N/N=C/c1ccc(/C=N/NS(=O)(=O)c2ccccc2)cc1)c1ccccc1`, the TGI in [1] is greater than 100 µM; in assay [2] it was greater than 100 µM; in assay [3], greater than 100 µM; in assay [7] it was 77.4 µM; in [5] it was greater than 100 µM.
Consider `O=[N+]([O-])c1cccc(C2N3CCCCC3[C@@H]3c4[nH]c5ccccc5c4CCN23)c1` (stereo not given in full), for which the TGI was 43.3 µM in assay [1]; 19.8 µM in assay [3]; 18.8 µM in assay [7]; 27.2 µM in [5]; greater than 100 µM in assay [6].
Take `COc1c2nc(CCl)[nH]c(=O)c2c(OC)c2nc(CCl)[nH]c(=O)c12`: the TGI in assay [1], in assay [2], in [3], in assay [4], in assay [7] and in assay [5] was greater than 100 µM in each case. The molecule further displayed a TGI in assay [6] greater than 100 µM.
As to `CC/C(C)=C1\CCC(CN2CCOCC2)C1=O` (stereo not given), the TGI in assay [1] was determined as 22.9 µM; in assay [2], 26.8 µM; in assay [3] it was 39.9 µM; in assay [7], 22 µM; in assay [5] it was 78.4 µM; in assay [6] it was 34.5 µM.
On to `CC1C[C@@]2(c3ccccc3)C(=O)CCC[C@H]2N1` (stereo not given in full), for which the TGI in assay [1], in assay [2], in [3], in assay [4], in assay [7] and in assay [5] was greater than 100 µM in each case. In assay [6], this molecule had a TGI greater than 100 µM.
As to `CN[C@@H](C)C(=O)N[C@H](C(=O)N1CCC[C@H]1C(=O)N[C@H]1c2ccccc2C[C@H]1OCC#CC#CCO[C@@H]1Cc2ccccc2[C@@H]1NC(=O)[C@@H]1CCCN1C(=O)[C@@H](NC(=O)[C@H](C)NC)C1CCCCC1)C1CCCCC1`, the GI50 in assay [1] was 9.29 µM; in assay [2], 3.68 µM; in assay [3] it was 3.68 µM; in [8] it was 1.47 µM; in [4] it was 0.0623 µM; in assay [9], 12 µM. The GI50 was less than 0.0371 µM in assay [7], 2.37 µM in assay [5] and 3.6 µM in assay [6]. Further, the TGI in assay [1] is 25.3 µM; in assay [2], 14.1 µM; in [3], 12.6 µM; in assay [8], 3.23 µM; in assay [4], 2.37 µM; in [9], greater than 100 µM. The TGI amounted to 13.7 µM in assay [5] and 11.5 µM in [6].
In the case of `C=CC1(C(=O)O)CCC(C(C)(C)C)CC1` (stereo not given), the total growth inhibition concentration (TGI) in [1], in assay [2], in assay [3], in [4], in assay [7] and in assay [5] was greater than 100 µM throughout. The molecule further registered a TGI in [6] greater than 100 µM.
Regarding `O=C1OC(CC(=O)c2ccc(Cl)c(Cl)c2)C(Cl)=C1Cl` (stereo not given), the TGI in assay [1] is greater than 100 µM; in assay [3], greater than 100 µM; in assay [4] it was 72.6 µM; in [7] it was greater than 100 µM; in assay [5] it was greater than 100 µM; in assay [6], greater than 100 µM.
Regarding `CC(=O)OCC1OC(N2C(=O)C(=O)c3cc(C)ccc32)C(OC(C)=O)C(OC(C)=O)C1OC(C)=O` (stereo not given), the TGI in assay [1] is greater than 100 µM; in assay [2], greater than 100 µM; in [3], greater than 100 µM; in [4] it was greater than 100 µM; in assay [7], 90.7 µM; in [5], greater than 100 µM. The molecule further displayed a TGI in assay [6] greater than 100 µM.
In the case of `COC(=O)CCc1cc(OC)c2c(c1)C(C(=O)OC)C(c1ccc(OC)c(OC)c1)O2` (stereo not given), the GI50 in assay [1] was > 100 µM and 40.9 µM; in assay [4] it was > 100 µM and 19.9 µM; in [9], > 100 µM and 26.8 µM; in [5], > 100 µM and 12 µM; in assay [6], > 100 µM and 17.3 µM. For the same molecule, the total growth inhibition concentration (TGI) in assay [1], in assay [2], in assay [3], in [8], in [4] and in assay [9] was greater than 100 µM in each case. In addition, the concentration for total growth inhibition (TGI) in assay [7], in assay [5] and in assay [6] was greater than 100 µM throughout.
For the molecule `CCNC(=O)CCN(C(=O)O)S(=O)(=O)c1ccc(NC(=O)c2ccccc2)cc1`, the TGI was 28.3 µM in assay [1]; greater than 100 µM in [2]; greater than 100 µM in assay [3]; greater than 100 µM in [4]; greater than 100 µM in [5]; 32 µM in assay [6].
For `NNC(=O)/C(=C/c1ccc(Cl)c(Cl)c1)NC(=O)c1ccccc1`, the concentration for total growth inhibition (TGI) in [1], in [2], in assay [3], in assay [7], in [5] and in assay [6] was greater than 100 µM each time.
With `CC1=C(C(=O)Nc2ccccc2C)C(c2ccc(Cl)c(Cl)c2)C(C(=O)Nc2ccccc2C)=C(C)N1`, the TGI was found to be 67.3 µM in assay [1]; 45.2 µM in [2]; 57.7 µM in assay [3]; 29.1 µM in [4]; 41.6 µM in [7]; 31.8 µM in assay [5]. For the same molecule, the TGI in [6] is greater than 100 µM.

For the origin of these results see PubChem BioAssay (NCI).
